Literature values in US11091809B2, “Molecular diagnostic test for cancer” (ALMAC DIAGNOSTICS LIMITED, priority 2012, dated 2021).

What was measured:
[1] = test system: ovarian cancer; details: bevacizumab monotherapy
[2] = test system: rectal cancer; details: bevacizumab monotherapy
[3] = test system: renal cancer; details: bevacizumab monotherapy
[4] = test system: primary peritoneal carcinoma, fallopian tube carcinoma, and epithelial ovarian carcinoma; details: ICON7

bevacizumab: recombinant humanised version of a murine anti-human VEGF monoclonal antibody
patients showing partial regression [1]: 21% | patients showing partial regression [2]: 33% | patients showing partial regression [3]: 10% | hazard ratio for death ([4]; bevacizumab group, patients at high risk of progression (FIGO stage IV or stage III with greater than 1.0 cm residual disease after debulking surgery)): 0.64 | hazard ratio for progression-free survival ([4]; standard chemotherapy (carboplatin and paclitaxel) and bevacizumab vs standard chemotherapy): 0.81
